Measured values reported in patent US8232401B2 (Japan Tobacco Inc., priority 2002, dated 2012).

Experiments:
HIV integrase = target: T1, HIV integrase (Human immunodeficiency virus type 1 group M subtype B, UniProt P12497, F1332H); experiment: Determination of enzyme (HIV integrase) inhibitory activity (strand transfer, microtiter plate, absorbance at 450 nm); type: biochemical, HIV (Human Immunodeficiency Virus (type 1)); conditions: recombinant HIV integrase (F185H) expressed in E. coli; donor DNA on streptavidin plate, digoxigenin target DNA; 37° C.
T1 construct: HIV integrase full length gene; made in house; host or cells: Escherichia coli BL21(DE3)

Row | Structure (SMILES) | IC50 (HIV integrase) [nM] | melting point [°C]
1 | O=C(O)c1cn(CCO)c2ccc(Cc3cccc(Cl)c3Cl)cc2c1=O [Example 1-1, 6-(2,3-dichlorobenzyl)-1,4-dihydro-1-(2-hydroxyethyl)-4-oxo-3-quinolinecarboxylic acid] | 29 | 247 to 249
2 | CC(C)Oc1cc(Cc2cccc(Cl)c2F)cc2c(=O)c(C(=O)O)cn([C@H](CO)C(C)(C)C)c12 [Example 4-26, (S)-6-(3-Chloro-2-fluorobenzyl)-[2,2-dimethyl-1-(hydroxymethyl)propyl]-8-isopropyloxy-4-oxo-1,4-dihydroquinoline-3-carboxylic acid] | 1.5 | 
3 | CC[C@H](C)[C@@H](CO)n1cc(C(=O)O)c(=O)c2cc(Cc3cccc(Cl)c3F)c(OC)cc21 [Example 4-27, 6-(3-Chloro-2-fluorobenzyl)-1-((1S,2S)-1-hydroxymethyl-2-methylbutyl)-7-methoxy-4-oxo-1,4-dihydroquinoline-3-carboxylic acid] | 2.9 | 
4 | CCOc1cc2c(cc1Cc1cccc(Cl)c1F)c(=O)c(C(=O)O)cn2[C@H](CO)[C@@H](C)CC [Example 4-28, 6-(3-Chloro-2-fluorobenzyl)-7-ethoxy-1-((1S,2S)-1-hydroxymethyl-2-methylbutyl)-4-oxo-1,4-dihydroquinoline-3-carboxylic acid] | 2.7 | 
5 | CC[C@@H](CO)n1cc(C(=O)O)c(=O)c2cc(Cc3cccc(Cl)c3F)c(SC)cc21 [Example 4-29, (S)-6-(3-Chloro-2-fluorobenzyl)-1-[1-(hydroxymethyl)propyl]-7-methylsulfanyl-4-oxo-1,4-dihydroquinoline-3-carboxylic acid] | 4.5 | 
6 | CCOc1cc2c(cc1Cc1cccc(Cl)c1F)c(=O)c(C(=O)O)cn2[C@H](CO)C(C)C [Example 4-30, (S)-6-(3-Chloro-2-fluorobenzyl)-7-ethoxy-1-(1-hydroxymethyl-2-methylpropyl)-4-oxo-1,4-dihydroquinoline-3-carboxylic acid] | 2.9 | 
7 | CCOc1cc2c(cc1Cc1cccc(Cl)c1F)c(=O)c(C(=O)O)cn2[C@H](CO)C(C)(C)C [Example 4-31, (S)-6-(3-Chloro-2-fluorobenzyl)-7-ethoxy-1-[2,2-dimethyl-1-(hydroxymethyl)propyl]-4-oxo-1,4-dihydroquinoline-3-carboxylic acid] | 2.1 | 
8 | COc1cc2c(cc1Cc1cccc(Cl)c1F)c(=O)c(C(=O)O)cn2[C@H](CO)C(C)(C)C [Example 4-33, (S)-6-(3-Chloro-2-fluorobenzyl)-1-[2,2-dimethyl-1-(hydroxymethyl)propyl]-7-methoxy-4-oxo-1,4-dihydroquinoline-3-carboxylic acid] | 2 | 
9 | COc1cc(Cc2cccc(Cl)c2F)cc2c(=O)c(C(=O)O)cn([C@H](CO)C(C)(C)C)c12 [Example 4-34, (S)-6-(3-Chloro-2-fluorobenzyl)-1-[2,2-dimethyl-1-(hydroxymethyl)propyl]-8-methoxy-4-oxo-1,4-dihydroquinoline-3-carboxylic acid] | 3.9 | 
10 | CCC[C@@H](CO)n1cc(C(=O)O)c(=O)c2cc(Cc3cccc(Cl)c3F)c(OC(C)C)cc21 [Example 4-35] | 4.3 | 
11 | CCC[C@@H](CO)n1cc(C(=O)O)c(=O)c2cc(Cc3cccc(Cl)c3F)c(OCC)cc21 [Example 4-36, (S)-6-(3-Chloro-2-fluorobenzyl)-7-ethoxy-1-[1-(hydroxymethyl)butyl]-4-oxo-1,4-dihydroquinoline-3-carboxylic acid] | 3.7 | 
12 | CCOc1cc(Cc2cccc(Cl)c2F)cc2c(=O)c(C(=O)O)cn([C@H](CO)C(C)(C)C)c12 [Example 4-37, (S)-6-(3-Chloro-2-fluorobenzyl)-8-ethoxy-1-[2,2-dimethyl-1-(hydroxymethyl)propyl]-4-oxo-1,4-dihydroquinoline-3-carboxylic acid] | 1.9 | 
13 | CCC[C@@H](CO)n1cc(C(=O)O)c(=O)c2cc(Cc3cccc(Cl)c3F)c(OC)cc21 [Example 4-38, (S)-6-(3-Chloro-2-fluorobenzyl)-1-[1-(hydroxymethyl)butyl]-7-methoxy-4-oxo-1,4-dihydroquinoline-3-carboxylic acid] | 3.3 | 
14 | CC[C@H](C)[C@@H](CO)n1cc(C(=O)O)c(=O)c2cc(Cc3cccc(Cl)c3F)c(OC(C)C)cc21 [Example 4-39, 6-(3-Chloro-2-fluorobenzyl)-1-((1S,2S)-1-hydroxymethyl-2-methylbutyl)-7-isopropyloxy-4-oxo-1,4-dihydroquinoline-3-carboxylic acid] | 4.1 | 
15 | CC(C)Oc1cc2c(cc1Cc1cccc(Cl)c1F)c(=O)c(C(=O)O)cn2[C@H](CO)C1CCCCC1 [Example 4-40, (S)-6-(3-Chloro-2-fluorobenzyl)-1-(1-cyclohexyl-2-hydroxyethyl)-7-isopropyloxy-4-oxo-1,4-dihydroquinoline-3-carboxylic acid] | 4.3 | 
16 | CCOc1cc(Cc2cccc(Cl)c2F)cc2c(=O)c(C(=O)O)cn([C@H](CO)C3CCCCC3)c12 [Example 4-41, (S)-6-(3-Chloro-2-fluorobenzyl)-1-(1-cyclohexyl-2-hydroxyethyl)-8-ethoxy-4-oxo-1,4-dihydroquinoline-3-carboxylic acid] | 2.3 | 
17 | COc1cc2c(cc1Cc1cccc(Cl)c1F)c(=O)c(C(=O)O)cn2[C@H](CO)C1CCCCC1 [Example 4-42, (S)-6-(3-Chloro-2-fluorobenzyl)-1-(1-cyclohexyl-2-hydroxyethyl)-7-methoxy-4-oxo-1,4-dihydroquinoline-3-carboxylic acid] | 2.3 | 
18 | CCOc1cc2c(cc1Cc1cccc(Cl)c1F)c(=O)c(C(=O)O)cn2[C@H](CO)C1CCCCC1 [Example 4-43, (S)-6-(3-Chloro-2-fluorobenzyl)-1-(1-cyclohexyl-2-hydroxyethyl)-7-ethoxy-4-oxo-1,4-dihydroquinoline-3-carboxylic acid] | 2.8 | 
19 | COc1cc(Cc2cccc(Cl)c2F)cc2c(=O)c(C(=O)O)cn([C@H](CO)C3CCCCC3)c12 [Example 4-44, (S)-6-(3-Chloro-2-fluorobenzyl)-1-(1-cyclohexyl-2-hydroxyethyl)-8-methoxy-4-oxo-1,4-dihydroquinoline-3-carboxylic acid] | 2.4 | 
20 | CCOc1cc(Cc2cccc(Cl)c2F)cc2c(=O)c(C(=O)O)cn([C@H](CO)C(C)C)c12 [Example 4-45, (S)-6-(3-Chloro-2-fluorobenzyl)-8-ethoxy-1-(1-hydroxymethyl-2-methylpropyl)-4-oxo-1,4-dihydroquinoline-3-carboxylic acid] | 3.4 | 
21 | COc1cc(Cc2cccc(Cl)c2F)cc2c(=O)c(C(=O)O)cn([C@H](CO)C(C)C)c12 [Example 4-46, (S)-6-(3-Chloro-2-fluorobenzyl)-1-(1-hydroxymethyl-2-methylpropyl)-8-methoxy-4-oxo-1,4-dihydroquinoline-3-carboxylic acid] | 5 | 
22 | CCC[C@@H](CO)n1cc(C(=O)O)c(=O)c2cc(Cc3cccc(Cl)c3F)cc(OC(C)C)c21 [Example 4-47, (S)-6-(3-Chloro-2-fluorobenzyl)-1-[1-(hydroxymethyl)butyl]-8-isopropyloxy-4-oxo-1,4-dihydroquinoline-3-carboxylic acid] | 2.3 | 
23 | CCC[C@@H](CO)n1cc(C(=O)O)c(=O)c2cc(Cc3cccc(Cl)c3F)cc(OCC)c21 [Example 4-48, (S)-6-(3-Chloro-2-fluorobenzyl)-8-ethoxy-1-[1-(hydroxymethyl)butyl]-4-oxo-1,4-dihydroquinoline-3-carboxylic acid] | 3 | 
24 | CCC[C@@H](CO)n1cc(C(=O)O)c(=O)c2cc(Cc3cccc(Cl)c3F)cc(OC)c21 [Example 4-49, (S)-6-(3-Chloro-2-fluorobenzyl)-1-[1-(hydroxymethyl)butyl]-8-methoxy-4-oxo-1,4-dihydroquinoline-3-carboxylic acid] | 5.7 | 
25 | CC(C)Oc1cc(Cc2cccc(Cl)c2F)cc2c(=O)c(C(=O)O)cn([C@H](CO)C3CCCCC3)c12 [Example 4-50, (S)-6-(3-Chloro-2-fluorobenzyl)-1-(1-cyclohexyl-2-hydroxyethyl)-8-isopropyloxy-4-oxo-1,4-dihydroquinoline-3-carboxylic acid] | 3.1 | 
